According to US11382919B2 (priority 2017, dated 2022):

Legend:
[1] = system: CaSki and HaCAT cells; settings: 3 independent experiments, FIG. 13
[2] = system: PLSCR1; experiment: Ionomycin activation of PLSCR1 (microscopy, co-immunoprecipitation/anti-phosphotyrosine blot); type: cell-based, human; settings: CaSki cells; 1 μM ionomycin; 15 minutes; immunoblotting
Protocol: (§1) FIG. 9A-9E. Ionomycin activates phospholipid scramblase leading to externalization of phosphatidylserines and Akt. (A). CaSki cells were treated with ionomycin (1 μM), HSV-2(G) (MOI 5 pfu/cell) or DMSO (0.1%) for 15 minutes and then fixed and stained with antibodies to PLSCR1 (polyclonal rabbit and Alexa 555, red), PtdS (monoclonal antibody and Alexa555, red), or Akt (polyclonal rabbit and secondary Alexa488, green) as indicated. Nuclei were stained blue with DAPI. Images are representative of results obtained from 2-3 independent experiments; bar=10 μm. Five fields were scanned and mean fluorescence intensity (MFI) per cell calculated using ImageJ software (NIH); results are mean+SEM and the asterisks indicate significant differences by ANOVA compared to DMSO control treated cells. (B). CaSki cells were treated as in A for 15 minutes and then cell lysates were harvested, incubated with a goat anti-PLSCR1 antibody and immune complexes precipitated with protein G-agarose and analyzed by Western blotting with a mouse anti-phosphotyrosine mAb (PY20) or mouse anti-PLSCR1 Ab. […] (C). […] Cell surface proteins were biotinylated and precipitated with streptavidin magnetic beads and the pellet analyzed by immunoblotting with rabbit anti-pAktThr^308 or mouse anti-pAktS^473 1 Abs. In parallel, cellular lysates were analyzed by immunoblotting for total cellular Akt (rabbit polyclonal Ab). […]

[3] = system: Akt; experiment: Ionomycin-induced Akt phosphorylation (biotinylation of cell surface proteins, immunoblot); type: cell-based, human; settings: CaSki cells; 1 μM ionomycin; 5 or 15 minutes; immunoblotting
Protocol: as §1

[4] = system: HSV-1; settings: sporadic fatal encephalitis; optimal intravenous acyclovir therapy; cited from earlier work
[5] = system: HSV-2(G); experiment: Viral plaque assay with HSV-2(G); type: cell-based; settings: 5 μM R5421 pretreatment, drug added back to overlay, plaques 48 h post-infection
[6] = system: HSV-2(333ZAG); type: cell-based; settings: Vk2E6/E7 cells, R5421 pretreatment
[7] = system: HSV-1(VP26GFP); type: cell-based; settings: Vk2E6/E7 cells, R5421 pretreatment
[8] = system: phosphatidylserines (PtdS), Akt, PLSCR1 at the outer leaflet of the plasma membrane; experiment: Confocal imaging of HSV-induced externalization of PtdS, Akt and PLSCR1 in non-permeabilized cells; type: cell-based, human

Question: With Nonoxynol-9 [N9] as the compound, how does the “cytotoxicity, cell viability as percentage of control” value [1] read?
Answer: Its value is “kills cells”.

Question: Which results are given for `C[C@H](CCC(=O)O)C[C@H](C)C[C@H](C)C(=O)/C=C(\O)[C@H](C)C[C@H](C)C/C=C/[C@@H](C)[C@@H](O)[C@@H](C)[C@@H](O)C[C@@H]1CC[C@@](C)([C@H]2CC[C@@](C)([C@@H](C)O)O2)O1` [ionomycin]?
Answer: phosphorylated PLSCR1 [2]: an increase in phosphorylated PLSCR1; phosphorylated Akt [3]: phosphorylated Akt (both at the threonine 308 and serine 473 sites)

Question: With `Nc1nc2c(ncn2COCCO)c(=O)[nH]1` [acyclovir, 9-[2-hydroxymethyl]guanine] as the compound, how does the mortality [4] read?
Answer: The mortality was 14-19%.

Question: And the “survivors who resume a normal lifestyle” value [4]?
Answer: Its value is < 50%.

Question: Which “reduction of HSV-2 plaque formation relative to DMSO treated controls” value ([5]; CaSki cells) does the source give for `O=C(O)C(=O)O` [R5421, ethanedioic acid] here?
Answer: Its value is 88±7%.

Question: What about the “reduction of HSV-2 plaque formation relative to DMSO treated controls” value ([5]; HaCAT cells) of the same compound?
Answer: The value was 71.7±7%.

Question: What about the “reduction of HSV-2 plaque formation relative to DMSO treated controls” value ([5]; VK2E6/E7 cells) of the same compound?
Answer: The value was 95±6%.

Question: What about the “infection, percentage of GFP positive cells 16 h pi” value [6] of the same compound?
Answer: Its value is “reduced”.

Question: And the “infection, percentage of GFP positive cells 16 h pi” value [7]?
Answer: Its value is “reduced”.

Question: What about the “PtdS and Akt externalization” value [8] of the same compound?
Answer: Its value is “prevented PtdS and Akt externalization”.

Question: What about the “viral induced externalization of PtdS” value ([8]; CaSki cells, 5 μM R5421 15 min pretreatment, […]) of the same compound?
Answer: Its value is “prevented the viral induced externalization of PtdS”.

Question: And the “PtdS and Akt at the outer leaflet” value ([8]; R5421 added 30 min pi, CaSki, […])?
Answer: The value was “persistence of PtdS and Akt at the outer leaflet for up to 4 h pi”.

Question: For `CC(=O)OCOC(=O)CN(CC(=O)OCOC(C)=O)c1ccccc1OCCOc1ccccc1N(CC(=O)OCOC(C)=O)CC(=O)OCOC(C)=O` [BAPTA-AM], which “number of cells with detectable PtdS, Akt, or PLSCR1 at the outer leaflet” value ([8]; 100 μM pretreatment, CaSki, […]) is on record?
Answer: Its value is “significantly reduced”.
